The source of these data is patent US20260364101A1, “OLEUROPEIN IN THE MANAGEMENT OF CANCER” (FUNDACIÓN MIGUEL SERVET, priority 2023, published 2026).

The subject of data set [1] is LLC cells. Nature of the data set: LLC lung cancer mouse tumor model resistant to immunotherapy. In kind it is in vivo, C57BL/6 mice. As to conditions: for tumor growth: 300 μg oleuropein i.p. every other day for eight days. The procedure: (§1) C57BL/6 female mice were subcutaneously (s.c) injected with […] LLC cells or 0.5×10^6 MC38 cells per animal. When tumor growth reached an average diameter of 3.5 mm (day 0), mice received 100 μg of anti-PD-1 mAb (RPMI-14, BioXCell) intraperitoneally (i.p) at days 0, 5, and 13. Control mice received the same volume of saline. For oleuropein, mice received 300 μg oleuropein at days-1, 2, 4, 6, and 8. As negative control, the same volume of saline was injected.
(§2) The efficacy of all treatments was evaluated every two days by measuring two perpendicular tumor measurements. The size was calculated using the formula: Size=Length x Width. Mice were humanely sacrificed when tumor size reached ~150 mm^2, or when tumor ulceration or evident discomfort were observed. For rechallenge experiments in the MC38 model, mice that rejected tumors were injected s.c. with 5×10^5 MC38 cells in the left flank three months after the first tumor inoculation. Naïve mice were included as controls and development of tumors was evaluated for two months.
(§3) Tumor measurements of in vivo experiments are represented as tumor diameter (mm^2) and plotted either as individual data points for one individual mouse or as mean±SD as indicated in the figure legends. Statistical analysis was performed using one way ANOVA test followed by a Sidak's multiple comparison test at 0.05 level of significance. For in vivo experiments, to compare multiple experimental groups, one-way ANOVA test and Tukey's multiple comparison test were used. Two-tailed Student's t test was applied to compare two experimental groups. Survival of tumor-bearing mice is represented by Kaplan-Meier plots and analyzed by log-rank test. The p values <0.05 were considered statistically significant.
To test antitumor capacities in vivo, LLC cells were implanted subcutaneously into groups of mice and tumors were allowed to grow to an average diameter of approximately […]. This model was chosen because LCC cells are poorly immunogenic and notoriously refractory to PD-L1/PD-1 blockade. Oleuropein was then administered intraperitoneally every other day for eight days.
To address whether oleuropein could be combined with anti-PD1 immunotherapy to treat LCC-derived tumors, anti-PD1 mAb was systemically administered in combination with intraperitoneal injection of oleuropein. As controls, groups of mice treated with each of the agents singly and saline-treated groups were included.

Data set [2] relates to MDSCs. Nature of the data set: morphology of ex vivo MDSC cultures, phase contrast micrographs (FIG. 2a). In kind it is cell-based, mouse. As to conditions: MDSCs treated with oleuropein. On the procedure: (§4) Immunosuppressive myeloid cell subsets resembling tumor-infiltrating subsets (g-MDSCs, m-MDSCs and TAMs) were differentiated from mouse bone marrow following published procedures using conditioning medium produced by LLC tumor cells stably expressing GMCSF and MCSF cells. g- and m-MDSCs were purified using the myeloid-derived suppressor cell isolation kit (Miltenyi Biotec, Bergisch, Germany) according to manufacturer's recommendations. MDSCs and TAMs were seeded with 500 nM BML-275 or 50 μM oleuropein and incubated for seven days.

The test system of data set [3] is MDSCs. Nature of the data set: ex vivo differentiated MDSCs treated with compound, marker expression by flow cytometry (FIG. 1a). In kind it is cell-based, mouse. As to conditions: oleuropein 50 μM. On the procedure:
as §4
Surface and intracellular staining were carried out as described before with the following fluorochrome-conjugated antibody clones: AF488 anti-CD49d (R1-2), PE anti-CD4 (GK1.5), APCanti-CD8(53-6.7), brilliant Violet 510™ anti-I-A/I-E (M5/114.15.2,PE/Cyanine7anti-Ly-6G (1A8), and APC anti-CD80 (16-10A1) (Biolegend), FITC anti-IL-12 (C15.6) and BV421 anti-IL-2 (JES6-5H4) (BD Bioscience), APC-Vio® 770 anti-Ly-6C (REA796), PE REAfinity™ anti-F4/80 (REA126), and APC anti-CD68 (REA886) (Miltenyi), PerCP-Cyanine5.5 Anti-Human/Mouse CD11b (M1/70) (Tonbo), and AF488 anti-IFNγ (Clone XMG1.2) (BD Pharmigen). For human cells, it was used the following fluorochrome-conjugated antibodies: PerCP-Cy5.5-anti-CD11b (integrina alfa M) (M1/70), Violet Fluor 450 anti-CD14 antibody (61D3) (Tonbo), PE anti-CD115 (CSF-1R) (9-4D2-1E4) (Biolegend), PE-Cy™7 anti-CD11c (Clone B-ly6) (BD Bioscience), and APC anti-HLA-DR (REA517) (Miltenyi).
Data were collected using the FACSCanto Flow Cytometer (BD Biosciences) for ex vivo and in vitro experiments at Navarrabiomed Biomedical Research Center and Cyroflex LX flow cytometer (Beckman Counter). Data were analyzed with Flowjo.
For orientation: A flow cytometer gives signals particle by particle.

The test system of data set [4] is MC38 cells. Put plainly: MC38 colorectal cancer mouse tumor model, with rechallenge. In kind it is in vivo, C57BL/6 mice. As to conditions: MC38 s.c. The procedure: as §1, §2, §3
The efficacy of oleuropein and oleuropein/PD-1 blockade combinations were also tested in a colorectal cancer model. To this end, MC38 cells were subcutaneously implanted in mice and allowed to grow until tumors reached a diameter of about […]. Then, oleuropein was administered intraperitoneally one day prior to anti-PD1 mAb injection. […]

For data set [5] the following is noted: to elenolic acid and glucose; cited from earlier work.
The mark [6] stands for this setting: LLC s.c., oleuropein 300 μg i.p. alone or with anti-PD-1 mAb 100 μg i.p.

“Also recorded” adds a separate entry of the source.

With `C/C=C1/[C@H](O[C@@H]2O[C@H](CO)[C@@H](O)[C@H](O)[C@H]2O)OC=C(C(=O)OC)[C@H]1CC(=O)OCCc1ccc(O)c(O)c1` [oleuropein], the tumor growth result was “significantly delayed tumor growth” in data set [1] (LLC s.c.); “delayed tumor growth” in data set [1] (LLC s.c., listed as Oleuropein); “significantly delayed the growth of MC38 tumors” in data set [4] (oleuropein 300 μg i.p. or anti-PD-1 mAb 100 μg i.p.). Besides, the “increased survival, time” value in data set [1] (setting [6]) is “up to 20 days”. The survival entry in data set [1] (setting [6]) was “significant increase in long-term survival”; in data set [1] (LLC s.c., oleuropein 300 μg i.p. alone or with anti-PD-1 mAb 100 μg i.p., listed as Oleuropein), “significantly increased survival”; in data set [4] (oleuropein 300 μg i.p. and/or anti-PD-1 mAb 100 μg i.p.), “significant increase in survival”. In addition, the “mice responding to the treatment” value in data set [1] (LLC s.c., oleuropein i.p.) was “most of the mice responding to the treatment”. Moreover, the “improvement of aPD-1 therapies” value in data set [1] (tumor model intrinsically resistant to PD-1 blockade) is “improved aPD-1 therapies in a tumor model intrinsically resistant to PD-1 blockade; also recorded: improved aPD-1 and anti-LAG-3 therapies”. The morphology result in data set [2] was “acquired a dendritic cell-like morphology”. Further, the “polarization of MDSCs” value in data set [3] is “polarized MDSCs and TAMs into activated myeloid cells”. Moreover, the IL-12 entry in data set [3] (MDSCs) was “significant increase”. In data set [4] (oleuropein 300 μg i.p.), the cure rate was 16%. Also, the “decomposition by acid or enzymic hydrolysis” value in data set [5] is listed as “decomposes easily”.
